From US9364477B2, “Mutant ROS expression in human cancer” (Cell Signaling Technology, Inc., priority 2009, dated 2016)

Assays:
[1] = system: BaF3 expressing FIG-ROS(S); test: MTS cell growth assay, BaF3 expressing FIG-ROS(S); type: cell-based, Murine
Experimental: (§1) BaF3 cells were transduced with retrovirus encoding FIG-ROS(S), FIG-ROS(L), or FLT-31TD (the Internal tandem duplication mutation in FLT3 causes AML leukemia), and selected for IL3 independent growth. Karpas 299 cells, which express NPM-ALK, was used as a positive control.
(§2) After 72 hours, 20 ul of the CellTiter 96 Aqueous One Solution Reagent was added into each well of a 96 well assay plate (flat bottom), and then 100 ul of cells grown with or without treatment. Media-only wells were used as controls. The 96 well plate was incubated for 1-4 hours at 37° C., and then viable cells were counted by reading the absorbance at 490 nm using a 96 well plate reader.

[2] = system: BaF3 expressing FIG-ROS(L); test: MTS cell growth assay, BaF3 expressing FIG-ROS(L); type: cell-based, Murine; settings: 0-1000 nM TAE-684, 72 hours
Experimental: as §1, §2

BaF3 expressing FLT3ITD = test: MTS cell growth assay, BaF3 transduced with FLT3/ITD; type: cell-based, Murine; settings: 0-1000 nM TAE-684, 72 hours
Experimental: as §1, §2

Karpas 299 cells [3] = test: MTS cell growth assay, Karpas 299 cells (NPM-ALK); type: cell-based; settings: 0-1000 nM TAE-684, 72 hours
Experimental: as §1, §2

[4] = system: BaF3 cells expressing FIG-ROS(S); test: Cleaved caspase-3 flow cytometry apoptosis assay, BaF3 FIG-ROS(S); type: cell-based, Murine; settings: presence of TAE-684
Description: (§3) The mechanism of death of the BaF3 and Karpas 299 cells was next reviewed by measuring the percentage of cleaved-caspase 3 positive cells by flow cytometry assay using cleaved caspase-3 as a marker for apoptosis.

[5] = system: BaF3 cells expressing FIG-ROS(L); test: Cleaved caspase-3 flow cytometry apoptosis assay, BaF3 FIG-ROS(L); type: cell-based, Murine; settings: presence of TAE-684
Description: as §3

Karpas 299 cells [6] = test: Cleaved caspase-3 flow cytometry apoptosis assay, Karpas 299; type: cell-based; settings: presence of TAE-684
Description: as §3

FIG-ROS(S) = FIG-ROS(S) (Homo sapiens, UniProt P08922); test: Western blotting of phosphorylation, BaF3 FIG-ROS(S); type: cell-based; settings: 0, 10, 50, or 100 nM TAE-684 for three hours
FIG-ROS(L) = FIG-ROS(L) (Homo sapiens, UniProt P08922); test: Western blotting of phosphorylation, BaF3 FIG-ROS(L); type: cell-based; settings: 0, 10, 50, or 100 nM TAE-684 for three hours
[7] = system: BaF3 cells transduced with the FLT-31TD retrovirus; test: Western blotting of phosphorylation, BaF3 FLT-31TD; type: cell-based, Murine; settings: 0, 10, 50, or 100 nM TAE-684 for three hours
[8] = system: Ros (D4D6) XP™ Rabbit mAb; settings: HCC78 cells; antibody 0.19 μg/ml; peptide 1.9 ug/ml
Experimental: Briefly, paraffin embedded HCC78 cell pellets were deparaffinized and rehydrated through three changes of xylene and graded ethanol, then rinsed in diH2O. Slides were subjected to antigen retrieval in 1.0 mM EDTA, pH 8.0 in the microwave. After blocking for 1 hour in TBST/5% goat serum, slides were incubated overnight at 4° C. with Ros (D4D6) XP™ Rabbit mAb at 0.19 μg/ml in the absence of peptide or in the presence of one of 13 different ROS peptides at 1.9 ug/ml.
After washing, detection was performed with SignalStain® Boost IHC Detection Reagent (HRP, Rabbit) #8114 and NovaRed (Vector Laboratories, Burlingame, Calif.).

Row | Molecule | cellular growth response in the presence of TAE-684 ([1]; BaF3 FIG-ROS(S), 0-1000 nM TAE-684, 72 hours, MTS) | susceptibility of FIG-ROS(S) to TAE-684 compared with FIG-ROS(L) ([1]; BaF3 cells, MTS assay) | cellular growth response in the presence of TAE-684 [2] | cellular growth response in the presence of TAE-684 (BaF3 expressing FLT3ITD) | cellular growth response in the presence of TAE-684 (Karpas 299 cells [3]) | death by apoptosis (cleaved-caspase 3 positive cells) [4] | death by apoptosis (cleaved-caspase 3 positive cells) [5] | cell cycle arrest (Karpas 299 cells [6]) | death by apoptosis (cleaved-caspase 3 positive cells) (Karpas 299 cells [6]) | phosphorylation of FIG-ROS(S) (FIG-ROS(S)) | phosphorylation of STAT3, AKT, and ERK, and Shp2 (downstream signaling molecules) (FIG-ROS(S)) | phosphorylation of FIG-ROS(L) (FIG-ROS(L)) | phosphorylation of STAT3, AKT, and ERK, and Shp2 (downstream signaling molecules) (FIG-ROS(L)) | phosphorylation of STAT3, AKT, and ERK, and Shp2 [7] | competition of ROS antibody binding off the IHC slide [8]
1 | COc1cc(N2CCC(N3CCN(C)CC3)CC2)ccc1Nc1ncc(Cl)c(Nc2ccccc2S(=O)(=O)C(C)C)n1 [TAE-684] | stopped growing | less susceptible | stopped growing | not susceptible | stopped growing | die by apoptosis | die by apoptosis | underwent cell cycle arrest | did not die by apoptosis | inhibited | inhibited | inhibited | inhibited | not affected | –
2 | (biotin)AGAGVAYCPSGKPE [peptide 9] | – | – | – | – | – | – | – | – | – | – | – | – | – | – | able to compete
